Patent US9765017B2, “Allosteric hemoglobin modifiers with nitric oxide releasing moiety” (VIRGINIA COMMONWEALTH UNIVERSITY, priority 2013, dated 2017)

Assays:
Hb = target: T1, Hb (Homo sapiens, UniProt P68871+P69905); assay: Effect on Hb affinity for oxygen (oxygen equilibrium curve study) using normal whole blood; assay type: cell-based; settings: 2 mM compound; for ΔP50: versus DMSO control, whole blood; for N (Hill coefficient) / P50: whole blood (Hct ~29%), 37° C.
T1 construct: Normal whole blood used in some of the functional assays was collected from adult donors; from tissue; host or cells: normal human whole blood (red cells) from adult donors
Description: RSR-13 is an allosteric effector of Hb that acts by decreasing Hb affinity for O2, and as a result allows release of more O2 to tissues.^26 In this study, a nitrate ester moiety was incorporated onto RSR-13. It was proposed that, in vivo, the NO will cleave off, resulting in the parent compound and free NO, the former acting as right-shifter of the oxygen equilibrium curve while the latter is released into the vasculature. The following describe the synthesis of three nitrate esters of RSR-13, including DD-1, DD-2 and DD-3 (FIGS. 1-3). Other NO containing RSR-13 derivatives, such as those referenced above may be synthesized according to the same or similar processes. Normal whole blood used in some of the functional assays was collected from adult donors at the Virginia Commonwealth University after informed consent. Hb used for structural studies was purified from discarded normal blood samples. The use of these human samples is in accordance with regulations of the IRB for Protection of Human Subjects.
The effect of DD-1 on Hb affinity for oxygen was studied using whole blood with RSR-13 as a positive control. Solution of DD-1 and RSR-13 was added to 2 mL of whole blood (Hemocrit of ˜29%) to make a final drug concentration of 2 mM. Time-dependent studies were carried out at various time points (ranging from 1 h to 12 h) at 37° C. Briefly, blood-drug mixture samples at various time points were incubated in IL 237 tonometer (Instrumentation Laboratories, Inc., Lexington, Mass.) for about 5-7 min at 37° C. against gas mixture containing O2 concentrations of 0.804%, 2.935% and 8.785% and allowed to equilibrate at O2 tensions of 6, 20, 60 mmHg, respectively. After equilibration, the sample was removed via syringe and aspirated into a ABL 700 series table top automated blood gas analyzer (Radiometer America, Inc., Westlake, Ohio) to determine total hemoglobin (tHb), hematocrit (Hct), pH, pCO2, partial pressure of oxygen (pO2), and the Hb oxygen saturation values (sO2). The measured values of pO2 and sO2 at each oxygen saturation level were then subjected to a non-linear regression analysis using the program Scientist (Micromath, Salt Lake City, Utah) with the following equation:
[formula] This equation was used to calculate P50 and Hill coefficient (N) values. Corresponding control experiments without the test compound (P50control) but containing DMSO were also performed.

[1] = Griess assay of nitric oxide release (quantitated as NO2- release); assay type: physicochemical; settings: 2 mM solution in 0.1 M phosphate buffer pH 7.4 mixed with 36 mM L-cysteine, 37° C., anaerobic
Protocol: A Griess assay was used to measure the NO releasing ability of DD-1 following literature procedures.^29-31 Solution of the test compound (1 mL of a 2 mM solution in 0.1 M phosphate buffer (pH 7.4)) was mixed thoroughly with a freshly prepared solution of L-cysteine (1 mL of a 36 mM solution in 0.1 M phosphate buffer, pH 7.4), and incubated at 37° C. for 1 and 16 h under anaerobic conditions. After exposure to air for 10 min at 25° C., an aliquot of the Griess reagent (1 mL) [freshly prepared by mixing equal volumes of 1.0% sulfanilamide (prepared and stored in aqueous 5% phosphoric acid) and 0.1% N-naphthylethylenediamine dihydrochloride in water] was added to equal volume (1 mL) of each incubation solution after mixing. After 10 min, absorbance was measured at 540 nm using a Hewlett Packard (Agilent) 8453 UV-visible Spectroscopy. NaNO2 solutions of 1-100 μM concentrations were used to prepare a standard nitrite curve of absorbance (nm) versus concentration (μM), and the NO released by DD-1 (quantitated as NO2^−release in μM) was calculated from the standard nitrite curve by extrapolation of the absorbance.

[2] = Stability of DMSO stock solution checked by UPLC-MS; assay type: physicochemical; settings: 100 μM in DMSO, 3 months at −20° C., at least 6 freeze-thaw cycles
Protocol: The stability of nitrate esters was checked by performing UPLC-MS on a previously prepared stock solution of DD-1. A 100 μM stock solution was prepared in DMSO and stored for 3 months at −20° C. during which time it was exposed to at least 6 freeze-thaw cycles.

T1 sequence (P69905 2-142 limits assumed): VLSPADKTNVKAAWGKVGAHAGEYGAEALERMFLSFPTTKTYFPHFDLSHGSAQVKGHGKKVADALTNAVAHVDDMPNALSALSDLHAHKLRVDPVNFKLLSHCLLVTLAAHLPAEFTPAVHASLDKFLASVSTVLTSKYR
T1 sequence (P68871 2-147 limits assumed): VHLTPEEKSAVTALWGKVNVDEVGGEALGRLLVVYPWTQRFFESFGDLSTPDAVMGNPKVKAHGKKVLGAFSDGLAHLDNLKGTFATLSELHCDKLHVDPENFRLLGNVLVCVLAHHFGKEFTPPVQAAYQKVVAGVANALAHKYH

ΔP50 (Hb; incubation time 1 h) [mmHg]	ΔP50 (Hb; incubation time 2 h) [mmHg]	ΔP50 (Hb; incubation time 4 h) [mmHg]	ΔP50 (Hb; incubation time 8 h) [mmHg]	ΔP50 (Hb; incubation time 12 h) [mmHg]	N (Hill coefficient) (Hb; incubation time 1 h)	P50 (Hb; incubation time 1 h) [mmHg]	N (Hill coefficient) (Hb; incubation time 2 h)	P50 (Hb; incubation time 2 h) [mmHg]	N (Hill coefficient) (Hb; incubation time 4 h)	P50 (Hb; incubation time 4 h) [mmHg]	N (Hill coefficient) (Hb; incubation time 8 h)	P50 (Hb; incubation time 8 h) [mmHg]	N (Hill coefficient) (Hb; incubation time 12 h)	P50 (Hb; incubation time 12 h) [mmHg]	Stability of stock solution [2]	SMILES	NO2- release after 1 hour ([1]; 1 h incubation) [µM]	NO2- release after 16 hours ([1]; 16 h incubation) [µM]
15.3	15.0	16.1	16.9	15.6	1.8	47.8	1.9	47.9	1.8	49.7	1.8	51.8	1.9	52.6	–	Cc1cc(C)cc(NC(=O)Cc2ccc(OC(C)(C)C(=O)O)cc2)c1 [RSR-13, 2-[4-[2-[(3,5-dimethylphenyl)amino]-2-oxoethyl]phenoxy]-2-methylpropanoic acid, reference compound]	–	–
3.2	6.3	16.3	25.4	27.8	2.3	35.7	2.1	39.2	1.9	49.9	1.7	60.3	1.7	64.8	stable	Cc1cc(C)cc(NC(=O)Cc2ccc(OC(C)(C)C(=O)OCCO[N+](=O)[O-])cc2)c1 [DD-1, 2-(Nitrooxy)ethyl 2-(4-(2-((3,5-dimethylphenyl)amino)-2-oxoethyl)phenoxy)-2-methylpropanoate]	9.61	5.35
